Data reported in US20250295638A1, “METHODS OF TREATING ALLOGRAFT REJECTION” (Bargent Therapeutics Pty Ltd, priority 2022, published 2025).

Experiments:
serum heparan sulphate = assay: ELISA assay for serum heparan sulphate after renal allotransplantation; format: in vivo, rat; details: combined days 2, 4, 6
Description: (§1) Left orthotopic renal transplants were performed with a mean anastomosis time of 37±4 minutes using a standard technique (11), which would be well known to the skilled person. The procured kidney was perfused with 2 ml Custodial HTK solution (Chemie GMBH, Alsbach-Hähnlein, Germany) at […]. Transplanted rats were given analgesia (Carprofen 5 mg/kg every 12-24 hours subcutaneously) and a prophylactic antibiotic (Enrofloxacin 5 mg/kg SC 12 hourly) for 3 days. The transplanted kidney and blood were procured on day 6 immediately after euthanasia by CO2 asphyxiation. The kidney and blood were used for measurements of gene expression in intragraft lymphoid cells and peripheral blood mononuclear cells.
(§2) Groups used in this study are set out in Tables 6 and 7. Comparisons were made between an isograft control treatment group (i.e., a control for ischaemia reperfusion injury), a non-treated allograft group, and Castanospermine-treated allograft group. A primary comparison was made between the non-treated group versus the Castanospermine-treated group. […]
Serum samples, separated from whole blood were aliquoted and stored at −80° C. […] Absorbance was immediately measured at 450 nm on a Versa Max Microplate Reader (Molecular Devices, Sunnyvale, California, USA) and the results calculated in ng/ml according to the internal standard curve. […]

[1] = system: heparanase (HPSE) expression in peripheral blood lymphoid cells; assay: Heparanase expression (ddPCR, fractional abundance of cDNA) in peripheral blood lymphoid cells of kidney transplanted rats; format: in vivo, rat; details: day 6 after transplantation
Description: as §1
(§3) Studies about gene expression of heparanase were performed on lymphoid cells from transplanted kidney tissue and peripheral blood on day 6 after transplantation. This time frame encompassed the period of maximum rejection at day 6.
Castanospermine was administered by Alzet osmotic pumps (Alza Corporation, Palo Alto, United States) at an immunosuppressive dose of 150 mg/kg per day. […]
RNA was manually extracted using the RNeasy Plus Mini Kit as per the manufacturer's instructions (Qiagen, Hilden, Germany). […] The quality of the RNA was measured using the Nanodrop 2000 (ThermoFisher Scientific, MA, USA) and quantified using the Qubit 2.0 Fluorometer (Invitrogen, MA, USA), RNA was stored at […]. […]
Custom ddPCR assays were designed using the IDT PrimerQuest™ Tool, Prime Time qPCR assay (IDT, Singapore). […] A 25 ul reaction containing, ddPCR SuperMix for Probes (No dUTP) (Bio-Rad, Hercules, CA, USA), a hypoxanthine-guanine phosphoribosyl transferase reference control (HPRT-1) and heparanase target probes (HPSE) (IDT, Singapore). cDNA and water were created for each sample and added to a 96 well plate ready for ddPCR droplet generation. […]
The samples were left on the cycler for a minimum of 4 hours at 4° C. The droplets were then read on the QX200 Droplet Reader and analysed using QuantaSoft Software (Bio-Rad, Hercules, CA, USA). […]

[2] = system: heparanase (HPSE) expression in kidney transplant lymphoid cells; assay: Heparanase expression (ddPCR, fractional abundance of cDNA) in lymphoid cells from kidney transplants; format: in vivo, rat; details: Cast 150 mg/kg minus Non-Treated; day 6 after transplantation
Description: RNA was manually extracted using the RNeasy Plus Mini Kit as per the manufacturer's instructions (Qiagen, Hilden, Germany). […] The quality of the RNA was measured using the Nanodrop 2000 (ThermoFisher Scientific, MA, USA) and quantified using the Qubit 2.0 Fluorometer (Invitrogen, MA, USA), RNA was stored at −800 C. […]

[3] = system: heparan sulphate in the renal allotransplant; assay: H-scores for heparan sulphate in the renal allotransplant by digital image pathology; format: in vivo, rat; details: for H-score for heparan sulphate, estimate of difference: day 6 after transplantation
Description: as §1, §2
Whole slide digital images were acquired using an Aperio AT2 (Leica Biosystems, Wetzlar, Germany) at 20× magnification before analysis using the HALO v2.0 software (Indica laboratory, Corrales, New Mexico, USA). After selecting tissue areas, the percentage of total pixels with weak, moderate and strong staining intensity was measured using the ‘Area Quantification V1.0’ algorithm. Histology-score quantitation was calculated for each slide as H-score=(1×weak %)+(2×moderate %)+(3×strong %) providing a range from 0 to 300 (30). 4-6 sections per sample were scored at different levels through the tissue to obtain an average. […]
Three treatment Groups were studied at day 6 after transplantation. […] H Score quantitation is calculated for each slide as H-score=(1×weak %)+(2×moderate %)+(3×strong %) giving a score ranging from 0 to 300. There were 4-6 slides per kidney sample from one rat scored (each taken at different levels through the tissue) to obtain an average for that rat. […]

[4] = system: heart allograft (PVG donor, DA recipient); assay: Rat heterotopic cardiac transplantation: heart allograft survival; format: in vivo; details: for heart allograft survival times, mean / heart allograft survival times, median: PVG-DA allograft
Description: Inbred rat strains PVG (RT1c) (donor) and DA (RT1a) (recipient) used for heart and renal transplantation were housed under standard conditions. All procedures were approved and audited by an Animal Care and Ethics Committee in Australia.
Heterotopic cardiac transplants were done using a standard technique (10). Cardiac function was assessed daily by abdominal palpation. The end point of cardiac transplant survival was defined as the last day of palpable heart beating. Care of all rats in this study complied with the Animal Research Act 1985 (NSW, Australia). The protocols were designed to minimise pain and discomfort to the animals. Animals were acclimatised to laboratory conditions (22° C., 12 h cycle of light and dark, 50% humidity, ad libitum access to food and water) for a minimum of 1 wk. prior to experimentation. Intragastric gavage administration was carried out with conscious animals, using curved gavage needles appropriate for animal size (250-300 gm body weight: Gauge 16, 100 mm). All transplanted rats were given post-operative analgesia (Carprofen 4 mg/kg every 12-24 h subcutaneously). They were euthanized by approved carbon dioxide asphyxiation when the heart stopped beating prior to tissue procurement.
as §3
Castanospermine was administered by Alzet osmotic pumps (Alza Corporation, Palo Alto, United States) at an immunosuppressive dose of 150 mg/kg per day. OGT 2115 treatment started on the first post operative day and the Castanospermine treatment started on the day of the transplant.
An experiment was conducted comparing heart allograft survival in 6 groups of inbred rats.
These tests were assessed using the Wilcoxon rank sum test procedure. The mean, median, min, max and the first and third quartiles are presented for each group, as well as the estimated difference in location parameters with 95% confidence intervals. The difference in location parameters is the median of the difference between a sample from the first group and a sample from the second group.

[5] = system: pancreatic islet allografts; details: no IRI control, cited from earlier work
[6] = system: ischaemia reperfusion injury; details: reference (2); cited from earlier work
[7] = Castanospermine (150 mg/kg per day) v Isograft
[8] = Non-treated v Castanospermine (150 mg/kg per day)
[9] = Group 4: OGT 2115 2.5 mg/kg subcutaneously
[10] = Group 5: OGT 2115 5 mg/kg subcutaneously
[11] = Group 6: 10 mg/Kg, Wilcoxon difference in location
[12] = Group 6: OGT 2115 10 mg/kg subcutaneously

O[C@H]1[C@H](O)[C@@H](O)CN2CC[C@H](O)[C@H]12 [Castanospermine]
serum heparan sulphate levels, ratio of estimate of difference (serum heparan sulphate; [7]): 1.05 | serum heparan sulphate levels, ratio of estimate of difference (serum heparan sulphate; [8]): 1.72 | Estimated mean difference in heparanase levels (percent heparanase cDNA), peripheral blood samples ([1]; Cast 150 mg/kg minus Non-Treated): 22.1% | Estimated mean difference in heparanase levels (percent heparanase cDNA), kidney samples [2]: −31.0% | H-score for heparan sulphate, estimate of difference [3, 7]: −3.08 | H-score for heparan sulphate, estimate of difference [3, 8]: 34.78 | breakdown of HSPG (in words) ([3]; in both the allotransplant and the serum from allotransplanted rats, 150 mg/kg per day): effectively stops the breakdown of HSPG

O=C(O)Cc1ccc2oc(-c3ccc(NC(=O)/C=C/c4ccc(Br)cc4)c(F)c3)nc2c1 [OGT 2115]
Estimated mean difference in heparanase levels (percent heparanase cDNA), peripheral blood samples ([1]; OGT 2115 10 mg/kg minus Isograft): 17.0% | Estimated mean difference in heparanase levels (percent heparanase cDNA), peripheral blood samples ([1]; OGT 2115 10 mg/kg minus Non-Treated): 35.9% | survival of the heart allotransplant grafts (in words) ([4]; 2.5, 5 and 10 mg/Kg, Table 2 and FIG. 1): prolonged the survival | heart allograft survival times, mean [4, 9]: 7.40 days | heart allograft survival times, median [4, 9]: 8 days | heart allograft survival times, mean [4, 10]: 7.33 days | heart allograft survival times, median [4, 10]: 7 days | estimated increase in survival compared to DMSO [4, 11]: 3 days | estimated increase in survival compared to Non-treated PVG-DA [4, 11]: 2 days | heart allograft survival times, mean [4, 12]: 9.18 days | heart allograft survival times, median [4, 12]: 9 days

PI 88
rejection of islet allografts (in words) ([5]; WO 2008/046162, example 8 and FIG. 10): curtails rejection of islet allografts | survivals of pancreatic islet allografts (in words) ([5]; WO 2011/109877, Example 7 and FIG. 15): prolonged

Roneparstat
ischaemia reperfusion injury (in words) [6]: curtail ischaemia reperfusion injury
